Our source for the melting point values is US20060241172A1, “Benzodioxane and benzodioxolane derivatives and uses thereof” (Wyeth, priority 2005, published 2006).

As usually defined, the melting point is the temperature, or range, at which the solid turns liquid.

Counter-ions that a name gives are not always drawn.

Turning to `COc1ccc(Cl)cc1-c1cc(Cl)cc2c1OC(CN)O2` (stereo not shown) (as salt: hydrochloride) [Compound I-94, [6-Chloro-4-(2-methoxy-5-chloro-phenyl)-benzo[1,3]dioxol-2-yl]-methylamine], the melting point lay in the range of 228 to 230 °C. For `NC[C@H]1COc2ccc(Cl)c(-c3ccccc3Cl)c2O1` (as salt: hydrochloride) [Compound I-70, (2S)-[7-Chloro-8-(2-chloro-phenyl)-2,3-dihydro-benzo[1,4]dioxin-2-yl]-methylamine], the melting point was determined as 105 °C.

With `NC[C@H]1COc2cccc(-c3ccccc3C(F)(F)F)c2O1` (as salt: fumarate) [Compound I-57, 1-{(2S)-8-[2-(trifluoromethyl)phenyl]-2,3-dihydro-1,4-benzodioxin-2-yl}methanamine], the melting point lay in the range of 205 to 206 °C. `CNCC1COc2cccc(-c3cccc(Cl)c3Cl)c2O1` (stereo not shown) (as salt: fumarate) [Compound I-22, {[8-(2,3-Dichlorophenyl)-2,3-dihydro-1,4-benzodioxin-2-yl]methyl}methylamine] yielded a melting point of 184 to 185 °C. For the compound `NC[C@H]1COc2ccc(F)c(-c3ccccc3Cl)c2O1` (as salt: hydrochloride) [Compound I-71, (2S)-[8-(2-Chloro-phenyl)-7-fluoro-2,3-dihydro-benzo[1,4]dioxin-2-yl]-methylamine], the melting point lay in the range of 208 to 210 °C. Compound `NC[C@H]1COc2cccc(-c3c(Cl)cccc3Cl)c2O1` (as salt: salt) [Compound I-46, {[(2S)-8-(2,6-Dichlorophenyl)-2,3-dihydro-1,4-benzodioxin-2-yl]methyl}amine] yielded a melting point of 165 to 167 °C. In the case of `NCC1COc2cccc(-c3cccc(Cl)c3Cl)c2O1` (stereo not shown) (as salt: fumarate) [Compound I-6, {[8-(2,3-Dichlorophenyl)-2,3-dihydro-1,4-benzodioxin-2-yl]methyl}amine], the melting point was in the range of 211 to 212 °C. Compound `CN(C)CC1COc2cccc(-c3ccccc3Cl)c2O1` (stereo not shown) (as salt: fumarate) [Compound I-38, {[8-(2-Chlorophenyl)-2,3-dihydro-1,4-benzodioxin-2-yl]methyl}dimethylamine] returned a melting point of 196 to 197 °C. On to `NCC1Oc2cc(F)cc(-c3cc(Cl)ccc3Cl)c2O1` (stereo not shown) (as salt: hydrochloride) [Compound I-81, 1-[4-(2,5-Dichloro-phenyl)-6-fluoro-1,3-benzodioxol-2-yl]methanamine], for which the melting point is 204 to 205 °C.

The compound `Cc1ccccc1-c1cccc2c1OC(CN)CO2` (stereo not shown) (as salt: fumarate) [Compound I-3, {[8-(2-Methylphenyl)-2,3-dihydro-1,4-benzodioxin-2-yl]methyl}amine] registered a melting point of 201 to 202 °C. On to `NCC1Oc2cc(F)cc(-c3ccccc3)c2O1` (stereo not shown) (as salt: hydrochloride) [Compound I-77, 1-(6-Fluoro-4-phenyl-1,3-benzodioxol-2-yl)methanamine], for which the melting point fell in the range of 227 to 229 °C. The compound `CNCC1COc2cccc(-c3cccc(OC)c3OC)c2O1` (stereo not shown) (as salt: fumarate) [Compound I-30, {[8-(2,3-Dimethoxyphenyl)-2,3-dihydro-1,4-benzodioxin-2-yl]methyl}methylamine] returned a melting point of 159 to 160 °C. With `NC[C@H]1COc2cc(Cl)cc(-c3ccccc3F)c2O1` (as salt: hydrochloride) [Compound I-59, (2S)-[6-Chloro-8-(2-fluoro-phenyl)-2,3-dihydro-benzo[1,4]dioxin-2-yl]-methylamine] the figure was 176 to 178 °C; with `NCC1Oc2cc(Cl)cc(-c3ccccc3-c3ccccc3)c2O1` (stereo not shown) (as salt: hydrochloride) [Compound I-101, [6-Chloro-4-biphenyl-benzo[1,3]dioxol-2-yl]-methylamine], 196 to 198 °C. With `Cc1cccc(C)c1-c1cc(Cl)cc2c1O[C@@H](CN)CO2` (as salt: hydrochloride) [Compound I-69, (2S)-[6-Chloro-8-(2,6-dimethyl-phenyl)-2,3-dihydro-benzo[1,4]dioxin-2-yl]-methyl amine] the figure was 220 to 222 °C; with `Cc1cc(Cl)ccc1-c1cc(Cl)cc2c1O[C@@H](CN)CO2` (as salt: hydrochloride) [Compound I-65, (2S)-[6-Chloro-8-(4-chloro-2-methyl-phenyl)-2,3-dihydro-benzo[1,4]dioxin-2-yl]-methylamine], 110 °C. In turn, `COc1ccc(OC)c(-c2cc(Cl)cc3c2OC(CN)O3)c1` (stereo not shown) (as salt: hydrochloride) [Compound I-100, [6-Chloro-4-(2,5-dimethoxy-phenyl)-benzo[1,3]dioxol-2-yl]-methylamine] registered a melting point of 225 to 227 °C. `CNCC1COc2cccc(-c3ccccc3C(F)(F)F)c2O1` (stereo not shown) (as salt: fumarate) [Compound I-20, N-Methyl-1-{8-[2-(trifluoromethyl)phenyl]-2,3-dihydro-1,4-benzodioxin-2-yl}methanamine] had a melting point of 184 to 185 °C. The value for `COc1ccccc1-c1cc(Cl)cc2c1O[C@@H](CN)CO2` (as salt: hydrochloride) [Compound I-61, (2S)-[6-Chloro-8-(2-methoxy-phenyl)-2,3-dihydro-benzo[1,4]dioxin-2-yl]-methylamine] was 188 to 189 °C. With `CNCC1COc2cccc(-c3ccccc3Cl)c2O1` (stereo not shown) (as salt: fumarate) [Compound I-21, {[8-(2-Chlorophenyl)-2,3-dihydro-1,4-benzodioxin-2-yl]methyl}methylamine], the melting point lay in the range of 174 to 175 °C.

`CNCC1COc2cccc(-c3cc(F)ccc3F)c2O1` (stereo not shown) (as salt: fumarate) [Compound I-29, {[8-(2,5-Difluorophenyl)-2,3-dihydro-1,4-benzodioxin-2-yl]methyl}methylamine] came in with a melting point of 193 to 194 °C. The compound `NCC1COc2cccc(-c3ccccc3F)c2O1` (stereo not shown) (as salt: fumarate) [Compound I-2, {[8-(2-Fluorophenyl)-2,3-dihydro-1,4-benzodioxin-2-yl]methyl}amine] had a melting point of 188 to 190 °C. `NCC1Oc2cc(Cl)cc(-c3cc(Cl)ccc3Cl)c2O1` (stereo not shown) (as salt: hydrochloride) [Compound I-98, [6-Chloro-4-(2,5-dichloro-phenyl)-benzo[1,3]dioxol-2-yl]-methylamine]: the melting point was 246 to 248 °C. The value for `CC(C)NCC1COc2cccc(-c3ccc(Cl)cc3Cl)c2O1` (stereo not shown) (as salt: fumarate) [Compound I-37, N-{[8-(2,4-Dichlorophenyl)-2,3-dihydro-1,4-benzodioxin-2-yl]methyl}propan-2-amine] was 222 to 223 °C; that for `CCNCC1Oc2cc(F)cc(-c3ccccc3Cl)c2O1` (stereo not shown) (as salt: hydrochloride) [Compound I-88, N-{[4-(2-Chlorophenyl)-6-fluoro-1,3-benzodioxol-2-yl]methyl}ethanamine] was 182 to 183 °C; that for `Cc1ccc(C)c(-c2cccc3c2OC(CN)CO3)c1` (stereo not shown) (as salt: fumarate) [Compound I-11, {[8-(2,5-Dimethylphenyl)-2,3-dihydro-1,4-benzodioxin-2-yl]methyl}amine] was 199 to 200 °C. On to `NCC1Oc2cc(Cl)cc(-c3ccc(Cl)cc3Cl)c2O1` (stereo not shown) (as salt: hydrochloride) [Compound I-96, [6-Chloro-4-(2,4-dichloro-phenyl)-benzo[1,3]dioxol-2-yl]-methylamine], for which the melting point was greater than 250 °C. `NCC1COc2cccc(-c3cccc(F)c3F)c2O1` (stereo not shown) (as salt: fumarate) [Compound I-13, {[8-(2,3-Difluorophenyl)-2,3-dihydro-1,4-benzodioxin-2-yl]methyl}amine] showed a melting point of 189 to 190 °C. The value for `Cc1cccc(C)c1-c1cccc2c1OC(CN)CO2` (stereo not shown) (as salt: fumarate) [Compound I-12, {[8-(2,6-Dimethylphenyl)-2,3-dihydro-1,4-benzodioxin-2-yl]methyl}amine] was 205 to 206 °C. In turn, `C[C@]1(CN)COc2cccc(-c3ccc(Cl)cc3)c2O1` (as salt: fumarate) [Compound I-51, {[(2S)-8-(4-Chlorophenyl)-2-methyl-2,3-dihydro-1,4-benzodioxin-2-yl]methyl}amine] had a melting point of 155 to 158 °C.

`NC[C@H]1COc2cccc(-c3ccccc3Cl)c2O1` (as salt: fumarate) [Compound I-56, 1-[(2S)-8-(2-CHLOROPHENYL)-2,3-DIHYDRO-1,4-BENZODIOXIN-2-YL]METHANAMINE] came in with a melting point of 200 to 201 °C.

On to `NCC1Oc2cc(F)cc(-c3ccccc3Cl)c2O1` (stereo not shown) (as salt: hydrochloride) [Compound I-84, 1-[4-(2-Chloro-phenyl)-6-fluoro-1,3-benzodioxol-2-yl]methanamine], for which the melting point is 192 to 194 °C. On to `COc1ccccc1-c1cc(Cl)cc2c1OC(CN)O2` (stereo not shown) (as salt: hydrochloride) [Compound I-92, [6-Chloro-4-(2-methoxy-phenyl)-benzo[1,3]dioxol-2-yl]-methylamine], for which the melting point lay within 245 to 246 °C. With `NC[C@H]1COc2cc(Cl)cc(-c3cc(Cl)ccc3Cl)c2O1` (as salt: hydrochloride) [Compound I-67, (2S)-[6-Chloro-8-(2,5-dichloro-phenyl)-2,3-dihydro-benzo[1,4]dioxin-2-yl]-methyl amine] the figure was 205 to 207 °C. With `NC[C@H]1COc2cc(Cl)cc(-c3ccccc3Cl)c2O1` (as salt: hydrochloride) [Compound I-58, (2S)-[6-Chloro-8-(2-chloro-phenyl)-2,3-dihydro-benzo[1,4]dioxin-2-yl]-methylamine] the figure was 228 to 230 °C; with `COc1cccc(-c2cc(Cl)cc3c2OC(CN)O3)c1OC` (stereo not shown) (as salt: hydrochloride) [Compound I-95, [6-Chloro-4-(2,3-dimethoxy-phenyl)-benzo[1,3]dioxol-2-yl]-methylamine], 228 to 230 °C. The compound `CNCC1COc2cccc(-c3ccccc3F)c2O1` (stereo not shown) (as salt: fumarate) [Compound I-18, {[8-(2-Fluorophenyl)-2,3-dihydro-1,4-benzodioxin-2-yl]methyl}methylamine] displayed a melting point of 191 to 192 °C.
